# Non-standard residues stand in square brackets, D forms with d. Residues, ends and D or L forms follow the SMILES beside them. Oic = O=C(O)[C@@H]1C[C@@H]2CCCC[C@@H]2N1; Hyp = O=C(O)[C@@H]1C[C@@H](O)CN1; Pip = O=C(O)[C@@H]1CCCCN1; Ac6c = NC1(C(=O)O)CCCCC1; Nle = CCCC[C@H](N)C(=O)O; Aze = O=C(O)[C@@H]1CCN1; Ac3c = NC1(C(=O)O)CC1
# Biological target: Glutamate NMDA receptor
# Test: Displacement of L-[3H]glutamate from glutamate receptor in rat brain synaptic membrane
# Type: cell membranes
# Conditions: not given
row,Compound,Ki
1,NCC(=O)NC1(C(=O)N[C@@H](CCC(=O)O)C(=O)O)CC1 (H-Gly-[Ac3c]-Glu-OH),> 100 µM
2,N[C@@H](Cc1ccccc1)C(=O)N1CCC[C@H]1C(=O)N[C@@H](CCC(=O)O)C(=O)O (H-Phe-Pro-Glu-OH),4.85 µM
3,NCC(=O)NC1(C(=O)N[C@@H](CCC(=O)O)C(=O)O)CCCCC1 (H-Gly-[Ac6c]-Glu-OH),> 100 µM
4,NCC(=O)N1[C@H](C(=O)N[C@@H](CCC(=O)O)C(=O)O)C[C@@H]2CCCC[C@@H]21 (H-Gly-[Oic]-Glu-OH),22.4 µM
5,NCC(=O)N1CC[C@H]1C(=O)N[C@@H](CCC(=O)O)C(=O)O (H-Gly-[Aze]-Glu-OH),> 100 µM
6,NCC(=O)N1C2CCC1(C(=O)N[C@@H](CCC(=O)O)C(=O)O)CC2,0.48 µM
7,CCCC[C@H](N)C(=O)N1CCC[C@H]1C(=O)N[C@@H](CCC(=O)O)C(=O)O (H-[Nle]-Pro-Glu-OH),19.5 µM
8,N[C@@H](CC(=O)O)C(=O)N1CCC[C@H]1C(=O)N[C@@H](CCC(=O)O)C(=O)O (H-Asp-Pro-Glu-OH),41.3 µM
9,NCC(=O)N1CCCC[C@H]1C(=O)N[C@@H](CCC(=O)O)C(=O)O (H-Gly-[Pip]-Glu-OH),2.39 µM
10,NCC(=O)N1C[C@@H](N)C[C@H]1C(=O)N[C@@H](CCC(=O)O)C(=O)O,15.5 µM
11,C[C@@H](N)C(=O)N1CCC[C@H]1C(=O)N[C@@H](CCC(=O)O)C(=O)O,5.4 µM
12,C[C@H](N)C(=O)N1CCC[C@H]1C(=O)N[C@@H](CCC(=O)O)C(=O)O,2.66 µM
13,NCCCC[C@H](N)C(=O)N1CCC[C@H]1C(=O)N[C@@H](CCC(=O)O)C(=O)O (H-Lys-Pro-Glu-OH),22 µM
14,CC[C@H](C)[C@H](N)C(=O)N1CCC[C@H]1C(=O)N[C@@H](CCC(=O)O)C(=O)O (H-Ile-Pro-Glu-OH),> 100 µM
15,NCC(=O)N1C[C@H](O)C[C@H]1C(=O)N[C@@H](CCC(=O)O)C(=O)O (H-Gly-[Hyp]-Glu-OH),9.24 µM

# Biological target: Glutamate NMDA receptor (Rattus norvegicus) (UniProt P35439+Q00959+Q00960+Q00961+Q62645+Q8VHN2+Q9R1M7)
# Test: Neuroprotective activity in rat hippocampal neurons at 100 uM
# Type: functional, tissue-based
# Conditions: Hippocampus
row,Compound,Activity
1,NCC(=O)NC1(C(=O)N[C@@H](CCC(=O)O)C(=O)O)CC1 (H-Gly-[Ac3c]-Glu-OH),27%
2,NCC(=O)NC1(C(=O)N[C@@H](CCC(=O)O)C(=O)O)CCCCC1 (H-Gly-[Ac6c]-Glu-OH),27%
3,NCC(=O)N1CC[C@H]1C(=O)N[C@@H](CCC(=O)O)C(=O)O (H-Gly-[Aze]-Glu-OH),27%

# Source: ChEMBL document CHEMBL1139037, “New Gly-Pro-Glu (GPE) analogues: expedite solid-phase synthesis and biological activity” (Bioorg Med Chem Lett, 2006)
